# From publication PMC11649115, “In vitro safety evaluation of dopamine D3R antagonist, R-VK4-116, as a potential medication for the treatment of opioid use disorder” (PLOS ONE, 2024)
# Like-named read-outs stand apart in the source and are kept apart here.
# What was measured:
# [1] = biological target: T1, TNK1 (Homo sapiens, UniProt Q13470); assay: KINOMEscan binding (% Ctrl, Kd)
# T1 construct: made in house; host or cells: E. coli BL21-derived host (T7 phage) or HEK-293
# T1 sequence (Q13470 1-666): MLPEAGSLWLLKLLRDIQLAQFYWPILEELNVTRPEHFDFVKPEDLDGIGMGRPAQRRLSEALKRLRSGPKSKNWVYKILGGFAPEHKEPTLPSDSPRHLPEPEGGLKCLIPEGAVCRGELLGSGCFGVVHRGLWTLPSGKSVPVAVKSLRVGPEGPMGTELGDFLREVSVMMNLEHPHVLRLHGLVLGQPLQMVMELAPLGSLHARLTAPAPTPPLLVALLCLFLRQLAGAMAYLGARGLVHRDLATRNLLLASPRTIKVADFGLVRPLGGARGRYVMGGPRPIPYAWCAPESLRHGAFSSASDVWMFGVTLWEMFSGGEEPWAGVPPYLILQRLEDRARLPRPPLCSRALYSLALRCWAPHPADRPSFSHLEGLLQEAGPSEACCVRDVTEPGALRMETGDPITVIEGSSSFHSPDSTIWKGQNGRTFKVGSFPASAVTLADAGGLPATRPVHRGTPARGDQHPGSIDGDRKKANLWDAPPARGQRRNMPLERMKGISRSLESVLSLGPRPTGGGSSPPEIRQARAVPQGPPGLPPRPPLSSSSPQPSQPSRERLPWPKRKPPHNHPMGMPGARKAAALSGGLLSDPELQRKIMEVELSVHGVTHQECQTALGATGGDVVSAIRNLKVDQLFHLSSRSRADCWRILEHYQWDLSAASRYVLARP
# Experimental: (§2) Briefly, E. coli host derived from the BL21 strain were grown to log-phase and infected with kinase-tagged T7 phage and incubated with shaking at 32°C until lysis. The lysates were centrifuged and filtered to remove cell debris. The remaining kinases were produced in HEK-293 cells and subsequently tagged with DNA for qPCR detection. Streptavidin-coated magnetic beads were treated with biotinylated small molecule ligands to generate affinity resins for kinase assays. The liganded beads were blocked with excess biotin and washed to remove unbound ligand and to reduce non-specific phage binding. […] Selectivity Score (S-score) was a quantitative measure of compound selectivity. […] The binding constants (Kds) were also determined with a standard dose-response curve using the Hill equation and Levenberg-Marquardt algorithm [24, 25].
# [2] = system: human hepatocytes; assay: Metabolic stability in hepatocyte; conditions: for % remaining Vs T = 0 min: human hepatocytes
# Experimental: (§3) CYP3A4 substrate Midazolam (10 μM) was prepared and incubated in the same manner. […] In addition, in vitro half-life (t1/2, min) and intrinsic clearance (CLint, μl/min/10^6 cells) were calculated [10, 11].
# [3] = Metabolic stability in hepatocyte; conditions: human, hepatocytes in suspension
# Experimental: as §3
# [4] = biological target: T2, HPK1 (Homo sapiens, UniProt Q92918); assay: KINOMEscan binding (% Ctrl, Kd)
# T2 construct: made in house; host or cells: E. coli BL21-derived host (T7 phage) or HEK-293
# T2 sequence (Q92918 whole entry): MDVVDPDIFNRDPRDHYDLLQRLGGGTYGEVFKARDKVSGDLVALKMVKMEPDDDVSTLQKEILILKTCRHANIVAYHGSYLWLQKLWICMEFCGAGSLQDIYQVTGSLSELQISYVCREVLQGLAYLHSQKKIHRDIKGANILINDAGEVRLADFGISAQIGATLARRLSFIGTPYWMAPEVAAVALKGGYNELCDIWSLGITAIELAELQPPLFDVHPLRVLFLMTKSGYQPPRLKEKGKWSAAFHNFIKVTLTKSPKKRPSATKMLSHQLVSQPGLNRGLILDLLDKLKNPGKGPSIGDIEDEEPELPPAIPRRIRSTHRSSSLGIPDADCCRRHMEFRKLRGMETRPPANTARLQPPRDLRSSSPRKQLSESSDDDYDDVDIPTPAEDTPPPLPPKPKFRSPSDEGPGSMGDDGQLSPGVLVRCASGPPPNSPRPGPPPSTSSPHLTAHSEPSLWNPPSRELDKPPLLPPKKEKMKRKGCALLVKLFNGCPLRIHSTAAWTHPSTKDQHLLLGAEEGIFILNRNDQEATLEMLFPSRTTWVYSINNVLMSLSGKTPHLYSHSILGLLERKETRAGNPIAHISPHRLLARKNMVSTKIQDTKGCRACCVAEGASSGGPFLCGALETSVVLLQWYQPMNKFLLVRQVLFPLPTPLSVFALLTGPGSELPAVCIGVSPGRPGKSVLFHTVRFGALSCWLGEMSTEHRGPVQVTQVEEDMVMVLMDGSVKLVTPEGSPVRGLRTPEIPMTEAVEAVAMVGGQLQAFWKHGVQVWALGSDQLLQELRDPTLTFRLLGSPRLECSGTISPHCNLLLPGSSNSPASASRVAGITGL
# Experimental: as §2
# [5] = biological target: CYP3A4 (Homo sapiens, UniProt P08684); assay: CYP phenotyping, recombinant CYP; type: in vitro ADME; design: purchased XenoTech, LLC, Kansas City, KS; host or cells: bactosomes (bacterial membranes); conditions: recombinant CYP3A4, pH 7.4, incubated with CYP3A4, 1 μM, 120 min
# CYP3A4, sequence (P08684 whole entry, canonical isoform): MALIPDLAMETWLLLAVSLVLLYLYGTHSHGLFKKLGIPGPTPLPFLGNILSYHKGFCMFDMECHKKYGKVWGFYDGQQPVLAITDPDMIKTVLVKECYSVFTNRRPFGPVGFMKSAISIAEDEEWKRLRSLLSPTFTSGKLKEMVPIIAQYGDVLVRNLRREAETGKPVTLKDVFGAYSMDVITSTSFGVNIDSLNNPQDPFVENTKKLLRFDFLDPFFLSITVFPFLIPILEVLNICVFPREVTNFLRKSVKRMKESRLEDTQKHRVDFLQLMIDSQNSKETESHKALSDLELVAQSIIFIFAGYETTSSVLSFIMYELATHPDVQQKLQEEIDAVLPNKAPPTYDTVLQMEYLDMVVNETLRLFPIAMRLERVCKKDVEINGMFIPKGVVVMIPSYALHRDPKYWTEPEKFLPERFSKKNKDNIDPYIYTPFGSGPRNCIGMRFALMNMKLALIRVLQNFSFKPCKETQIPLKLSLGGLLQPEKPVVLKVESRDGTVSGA
# Experimental: (§1) CYP phenotyping involved the identification of CYP isoforms, which involved in the metabolism of R-VK4-116 using recombinant CYP1A2, CYP2B6, CYP2C8, CYP2C9, CYP2C19, CYP2D6, and CYP3A4 (XenoTech, LLC, Kansas City, KS), followed by determination of the Km and Vmax for the metabolites formed by the major CYP isoforms. […] In addition, R-VK4-116 was also incubated with all components in the absence of NADPH. […] Following brief vortexing and centrifugation, 50 μl of supernatant was mixed with 450 μl of 25:75:0.2 acetonitrile/water/formic acid for analysis by LC-MS/MS to determine the remaining R-VK4-116 at each time point based on peak area ratio (PAR) of R-VK4-116 to IS. As a positive control, the known substrate of each individual CYP isoform (phenacetin for CYP1A2, bupropion for CYP2B6, paclitaxel for CYP2C8, diclofenac for CYP2C9, diazepam for CYP2C19, bufuralol for CYP2D6, and testosterone for CYP3A4) was also incubated.
# [6] = biological target: CYP2D6 (Homo sapiens, UniProt P10635); assay: CYP phenotyping, recombinant CYP; type: in vitro ADME; design: purchased XenoTech, LLC, Kansas City, KS; host or cells: bactosomes (bacterial membranes); conditions: recombinant CYP2D6, pH 7.4, incubated with CYP2D6, 1 μM, 120 min
# CYP2D6, sequence (P10635 whole entry): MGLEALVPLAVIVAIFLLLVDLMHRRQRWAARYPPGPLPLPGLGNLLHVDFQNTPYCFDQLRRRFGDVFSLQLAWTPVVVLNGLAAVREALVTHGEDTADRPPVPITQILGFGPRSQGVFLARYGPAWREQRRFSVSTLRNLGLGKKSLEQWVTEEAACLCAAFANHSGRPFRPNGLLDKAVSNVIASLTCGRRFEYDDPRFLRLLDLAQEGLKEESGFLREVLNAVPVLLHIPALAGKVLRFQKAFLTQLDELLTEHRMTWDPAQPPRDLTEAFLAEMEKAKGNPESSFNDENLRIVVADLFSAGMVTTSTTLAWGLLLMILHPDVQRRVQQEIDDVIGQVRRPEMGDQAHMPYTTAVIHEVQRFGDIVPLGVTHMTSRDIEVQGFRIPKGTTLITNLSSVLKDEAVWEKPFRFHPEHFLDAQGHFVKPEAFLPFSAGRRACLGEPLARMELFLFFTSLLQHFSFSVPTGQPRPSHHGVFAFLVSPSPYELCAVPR
# Experimental: as §1
# [7] = biological target: T3, CYP2B6 (Homo sapiens, UniProt P20813); assay: CYP inhibition in human liver microsomes; conditions: human liver microsomes
# T3 sequence (P20813 1-491): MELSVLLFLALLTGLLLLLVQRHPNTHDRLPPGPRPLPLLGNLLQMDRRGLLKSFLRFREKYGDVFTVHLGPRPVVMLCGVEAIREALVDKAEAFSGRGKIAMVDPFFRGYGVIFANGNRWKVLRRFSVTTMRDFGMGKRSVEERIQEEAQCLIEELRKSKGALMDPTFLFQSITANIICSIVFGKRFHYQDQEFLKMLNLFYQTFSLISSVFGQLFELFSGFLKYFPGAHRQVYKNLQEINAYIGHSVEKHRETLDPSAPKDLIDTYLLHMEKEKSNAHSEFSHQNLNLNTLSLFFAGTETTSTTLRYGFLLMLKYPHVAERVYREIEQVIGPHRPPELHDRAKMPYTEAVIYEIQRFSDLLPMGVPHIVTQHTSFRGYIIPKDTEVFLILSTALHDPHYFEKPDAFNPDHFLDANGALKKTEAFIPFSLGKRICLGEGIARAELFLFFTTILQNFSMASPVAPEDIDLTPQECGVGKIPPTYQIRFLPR
# [8] = biological target: CYP2C9 (Homo sapiens, UniProt P11712); assay: CYP inhibition in human liver microsomes; conditions: human liver microsomes
# CYP2C9, sequence (P11712 whole entry): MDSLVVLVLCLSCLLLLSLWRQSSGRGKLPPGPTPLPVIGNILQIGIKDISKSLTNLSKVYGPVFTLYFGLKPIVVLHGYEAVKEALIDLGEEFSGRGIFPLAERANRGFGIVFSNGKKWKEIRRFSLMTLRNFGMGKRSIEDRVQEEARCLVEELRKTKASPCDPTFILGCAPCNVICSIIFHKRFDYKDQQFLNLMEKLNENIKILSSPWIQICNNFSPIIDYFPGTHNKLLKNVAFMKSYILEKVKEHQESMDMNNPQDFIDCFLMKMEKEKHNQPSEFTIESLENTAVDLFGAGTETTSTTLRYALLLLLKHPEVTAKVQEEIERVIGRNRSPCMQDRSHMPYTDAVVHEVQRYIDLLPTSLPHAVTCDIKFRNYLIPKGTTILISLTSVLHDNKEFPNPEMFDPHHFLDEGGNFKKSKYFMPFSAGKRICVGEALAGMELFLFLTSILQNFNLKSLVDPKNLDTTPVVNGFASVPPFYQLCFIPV
# [9] = biological target: D3R; design: method as in PMID 31526003; conditions: read-out: binding affinity for D3R (Ki); cited from earlier work
# [10] = 11-point curve 0.001 to 10 μM, read-out: binding constant (Kd)
# [11] = Sprague Dawley (rat), Beagle (dog), rat, dog
compound,measurement,setting,value
"CCc1cc(Cl)c(OC)c(N2CCN(CC(O)CCNC(=O)c3cc4ccccc4[nH]3)CC2)c1 (stereo not shown) [R-VK4-116, N-(4-(4-(3-chloro-5-ethyl-2-methoxyphenyl)piperazin-1-yl)-3-hydroxybutyl)-1H-indole-2-carboxamide]",Kd,[1]; [10],> 10 µM
same,remaining binding at 1 µM,[1]; read-out: %Control,< 35%
same,remaining binding at 1 µM,[1]; read-out: Gene (S-score with % control): TNK1,17%
same,% remaining Vs T = 0 min,"[2]; 0.5 μM, 0 min",100.0%
same,% remaining Vs T = 0 min,"[2]; 0.5 μM, 30 min",89.1%
same,% remaining Vs T = 0 min,"[2]; 0.5 μM, 60 min",78.4%
same,% remaining Vs T = 0 min,"[2]; 0.5 μM, 90 min",65.4%
same,% remaining Vs T = 0 min,"[2]; 0.5 μM, 120 min",48.1%
same,% remaining Vs T = 0 min,"[2]; 10 μM, 0 min",100.0%
same,% remaining Vs T = 0 min,"[2]; 10 μM, 30 min",93.2%
same,% remaining Vs T = 0 min,"[2]; 10 μM, 60 min",85.5%
same,% remaining Vs T = 0 min,"[2]; 10 μM, 90 min",78.9%
same,% remaining Vs T = 0 min,"[2]; 10 μM, 120 min",79.7%
same,metabolic stability,"[2]; human, rat, or dog hepatocytes, 0.5 and 10 μM",metabolically stable
same,half-life at 0.5 μM,[3]; [11],91 to 117 min
same,half-life at 10 μM,[3]; [11],169 to 347 min
same,hepatocyte CLint at 0.5 μM,[3]; [11],12 to 16 µL/min/1e6 cells
same,hepatocyte CLint at 10 μM,[3]; [11],4 to 8 µL/min/1e6 cells
same,half-life at 0.5 μM,[3],117 min
same,half-life at 10 μM,[3],338 min
same,hepatocyte CLint at 0.5 μM,[3],11.8 µL/min/1e6 cells
same,hepatocyte CLint at 10 μM,[3],4.1 µL/min/1e6 cells
same,Kd,[4]; [10],> 10 µM
same,remaining binding at 1 µM,[4]; read-out: %Control,< 35%
same,remaining binding at 1 µM,[4]; read-out: Gene (S-score with % control): HPK1,29%
same,"remaining at 2 h, 1 μM",[5],25.6%
same,"remaining at 2 h, 1 μM",[6],40.6%
same,CYP2B6 inhibition,[7]; up to 100 μM,did not inhibit CYP significantly
same,"activity at 20 min, 0.1 µM","[7]; human, probe bupropion",99.6 ± 7.5%
same,"activity at 20 min, 0.3 µM","[7]; human, probe bupropion",90.9 ± 2.5%
same,"activity at 20 min, 1 µM","[7]; human, probe bupropion",91.2 ± 1.4%
same,"activity at 20 min, 3 µM","[7]; human, probe bupropion",99.8 ± 7.6%
same,"activity at 20 min, 10 µM","[7]; human, probe bupropion",97.5 ± 6.6%
same,"activity at 20 min, 30 µM","[7]; human, probe bupropion",89.3 ± 1.2%
same,"activity at 20 min, 60 µM","[7]; human, probe bupropion",91 ± 0.7%
same,"activity at 20 min, 100 µM","[7]; human, probe bupropion",97 ± 4.9%
same,CYP2C9 inhibition,[8]; up to 100 μM,did not inhibit CYP significantly
same,"activity at 20 min, 0.1 µM","[8]; human, probe diclofenac",89.5 ± 9.2%
same,"activity at 20 min, 0.3 µM","[8]; human, probe diclofenac",79 ± 2.7%
same,"activity at 20 min, 1 µM","[8]; human, probe diclofenac",80.9 ± 2.2%
same,"activity at 20 min, 3 µM","[8]; human, probe diclofenac",92.3 ± 10.1%
same,"activity at 20 min, 10 µM","[8]; human, probe diclofenac",91.5 ± 7.3%
same,"activity at 20 min, 30 µM","[8]; human, probe diclofenac",80.9 ± 0.9%
same,"activity at 20 min, 60 µM","[8]; human, probe diclofenac",81.8 ± 3.1%
same,"activity at 20 min, 100 µM","[8]; human, probe diclofenac",93.4 ± 8.1%
same,Ki,[9],7.4 nM
